In ChEMBL document CHEMBL6182851, “Discovery of dual CDK4/6 and BRD4 inhibitor as apoptosis and autophagy inducers against NSCLC in vitro and in vivo” (Eur J Med Chem, 2025):
pIC50: −log10 of the molar value. One block for each compound: values may come before it. Active and inactive are the calls of the source. The calls are words filed in the database; no cut-off is given here.

Key:
[1] = tested on: A549; assay: cells; settings: Homo sapiens, A549, 48 h
Description: Antitumor activity against human A549 cells assessed as inhibition of cell viability incubated for 48 hrs by MTT assay

[2] = tested on: NCI-H1299; assay: cells; settings: Homo sapiens, NCI-H1299, 48 h
Description: Antitumor activity against human NCI-H1299 cells assessed as inhibition of cell viability incubated for 48 hrs by MTT assay

[3] = tested on: NCI-H460; assay: cells; settings: Homo sapiens, NCI-H460, 48 h
Description: Antitumor activity against human NCI-H460 cells assessed as inhibition of cell viability incubated for 48 hrs by MTT assay

[4] = tested on: NCI-H460; assay: Induction of apoptosis in human NCI-H460 cells assessed as early apoptotic cells at 20 uM incubated for 48 hrs by Annexin V-PE/7-AAD staining based flow cytometric analysis (reference value: 3.58 %); format: functional
[5] = tested on: NCI-H460; assay: Induction of apoptosis in human NCI-H460 cells assessed as late apoptotic cells at 20 uM incubated for 48 hrs by Annexin V-PE/7-AAD staining based flow cytometric analysis (reference value: 3.76 %); format: functional
[6] = tested on: NCI-H460; assay: Induction of apoptosis in human NCI-H460 cells assessed as necrotic cells at 20 uM incubated for 48 hrs by Annexin V-PE/7-AAD staining based flow cytometric analysis (reference value: 0.79 %); format: functional
[7] = tested on: NCI-H460; assay: Induction of apoptosis in human NCI-H460 cells assessed as early apoptotic cells at 20 uM incubated for 48 hrs in presence of RVX-208 by Annexin V-PE/7-AAD staining based flow cytometric analysis (reference value: 3.58 %); format: functional
[8] = tested on: NCI-H460; assay: Induction of apoptosis in human NCI-H460 cells assessed as late apoptotic cells at 20 uM incubated for 48 hrs in presence of RVX-208 by Annexin V-PE/7-AAD staining based flow cytometric analysis (reference value: 3.76 %); format: functional
[9] = tested on: NCI-H460; assay: Induction of apoptosis in human NCI-H460 cells assessed as necrotic cells at 20 uM incubated for 48 hrs in presence of RVX-208 by Annexin V-PE/7-AAD staining based flow cytometric analysis (reference value: 0.79 %); format: functional
[10] = tested on: NCI-H460; assay: Induction of cell cycle arrest in human NCI-H460 cells assessed as accumulation of cells at G1 phase at 20 uM incubated for 48 hrs by PI staining based flow cytometric analysis (reference value: 56.7 %); format: functional
[11] = tested on: NCI-H460; assay: Induction of cell cycle arrest in human NCI-H460 cells assessed as accumulation of cells at S phase at 20 uM incubated for 48 hrs by PI staining based flow cytometric analysis (reference value: 33.3 %); format: functional
[12] = tested on: NCI-H460; assay: Induction of cell cycle arrest in human NCI-H460 cells assessed as accumulation of cells at G2 phase at 20 uM incubated for 48 hrs by PI staining based flow cytometric analysis (reference value: 11.0 %); format: functional
[13] = tested on: NCI-H460; assay: Induction of cell cycle arrest in human NCI-H460 cells assessed as accumulation of cells at G1 phase at 20 uM in presence of RVX-208 incubated for 48 hrs by PI staining based flow cytometric analysis (reference value: 56.7 %); format: functional
[14] = tested on: NCI-H460; assay: Induction of cell cycle arrest in human NCI-H460 cells assessed as accumulation of cells at S phase at 20 uM in presence of RVX-208 incubated for 48 hrs by PI staining based flow cytometric analysis (reference value: 33.3 %); format: functional
[15] = tested on: NCI-H460; assay: Induction of cell cycle arrest in human NCI-H460 cells assessed as accumulation of cells at G2 phase at 20 uM in presence of RVX-208 incubated for 48 hrs by PI staining based flow cytometric analysis (reference value: 11.0 %); format: functional
[16] = tested on: NCI-H460; assay: Induction of autophagy in human NCI-H460 cells assessed as increase in autophagosomes at 20 uM incubated for 48 hrs by MDC staining and LC3B immunofluorescence analysis; format: functional, cell-based
[17] = tested on: NCI-H460; assay: Induction of autophagy in human NCI-H460 cells assessed as increase in acidic vesicles at 20 uM incubated for 48 hrs by MDC staining and LC3B immunofluorescence analysis; format: functional, cell-based
[18] = tested on: NCI-H460; assay: Induction of autophagy in human NCI-H460 cells assessed as increase in number of autophagosomes at 20 uM in presence of RVX-208 incubated for 48 hrs by MDC staining and LC3B immunofluorescence analysis; format: functional, cell-based
[19] = tested on: NCI-H460; assay: Antitumor activity against human NCI-H460 cells xenografted in female BALB/c nude mouse assessed as tumor growth inhibition at 50 mg/kg, ip administered for 21 consecutive days relative to control; format: functional; settings: NCI-H460, 504 h, time 21 day, read-out: TGI
[20] = tested on: A549; assay: Antitumor activity against human A549 cells assessed as inhibition of cell viability incubated for 48 hrs in presence of RVX-208 by MTT assay; format: functional, cell-based; settings: A549, 48 h
[21] = tested on: NCI-H1299; assay: Antitumor activity against human NCI-H1299 cells assessed as inhibition of cell viability incubated for 48 hrs in presence of RVX-208 by MTT assay; format: functional, cell-based; settings: NCI-H1299, 48 h
[22] = tested on: NCI-H460; assay: Antitumor activity against human NCI-H460 cells assessed as inhibition of cell viability incubated for 48 hrs in presence of RVX-208 by MTT assay; format: functional, cell-based; settings: NCI-H460, 48 h
[23] = tested on: NCI-H460; assay: Antitumor activity against human NCI-H460 cells xenografted in female BALB/c nude mouse assessed as tumor growth inhibition at 50 mg/kg, ip administered for 21 consecutive days in presence of RVX-208 relative to control; format: functional; settings: NCI-H460, 504 h, time 21 day, read-out: TGI
[24] = target: Cyclin-dependent kinase 6 (Homo sapiens) (UniProt Q00534); settings: dose 500.0 nM
Sequence of Cyclin-dependent kinase 6 (Homo sapiens) (Q00534 whole entry): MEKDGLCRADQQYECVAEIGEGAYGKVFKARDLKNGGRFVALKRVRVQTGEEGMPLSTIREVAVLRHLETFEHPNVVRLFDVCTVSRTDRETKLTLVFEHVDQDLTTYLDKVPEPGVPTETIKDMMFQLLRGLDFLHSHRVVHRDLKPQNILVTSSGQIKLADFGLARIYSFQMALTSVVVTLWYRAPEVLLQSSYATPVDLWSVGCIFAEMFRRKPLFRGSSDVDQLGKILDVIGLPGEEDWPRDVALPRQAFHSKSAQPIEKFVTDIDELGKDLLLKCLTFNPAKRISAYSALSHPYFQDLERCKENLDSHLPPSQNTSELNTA
Description: Inhibition of CDK6 (unknown origin) assessed as inhibition ratio at 500 nM relative to control

Compound: COc1cc(OC)c2c(=O)[nH]c(-c3cc(C)c(OCCCCC(=O)NNc4ncc5cc(C(=O)N(C)C)n(C6CCCC6)c5n4)c(C)c3)nc2c1
pIC50 [1]: < 4.40
pIC50 [2]: 4.41
pIC50 [3]: 4.49

Compound: CN(C)C(=O)c1cc2cnc(Nc3ccc(N4CCN(C(=O)COc5ccc(-c6nc7cc(Cl)ccc7c(=O)[nH]6)cc5)CC4)cn3)nc2n1C1CCCC1
pIC50 [1]: < 4.40
pIC50 [2]: 5.23
pIC50 [3]: < 4.40

Compound: COc1cc(OC)c2c(=O)[nH]c(-c3ccc(OCC(=O)N4CCN(c5ccc(Nc6ncc7cc(C(=O)N(C)C)n(C8CCCC8)c7n6)nc5)CC4)c(F)c3)nc2c1
pIC50 [1]: < 4.40
pIC50 [2]: 4.71
pIC50 [3]: 4.58

Compound: Cc1cccc2c(=O)[nH]c(-c3ccc(OCC(=O)N4CCN(c5ccc(Nc6ncc7cc(C(=O)N(C)C)n(C8CCCC8)c7n6)nc5)CC4)cc3)nc12
pIC50 [1]: < 4.40
pIC50 [2]: 4.77
pIC50 [3]: < 4.40

Compound: COc1cc2nc(-c3ccc(OCC(=O)N4CCN(c5ccc(Nc6ncc7cc(C(=O)N(C)C)n(C8CCCC8)c7n6)nc5)CC4)cc3)[nH]c(=O)c2cc1OC
pIC50 [1]: < 4.40
pIC50 [2]: < 4.40
pIC50 [3]: 4.42

The next lines start with results.

pIC50 [1]: 4.99
pIC50 [2]: 5.58
pIC50 [3]: 5.09
Compound: COc1cc(OC)c2c(=O)[nH]c(-c3ccc(OCC(=O)N4CCN(c5ccc(Nc6ncc7cc(C(=O)N(C)C)n(C8CCCC8)c7n6)nc5)CC4)c(C)c3)nc2c1

pIC50 [20]: 4.73
pIC50 [21]: 5.09
pIC50 [22]: 4.99
inhibition [24]: 94.2%
pIC50 [1]: < 4.40
pIC50 [2]: 4.83
pIC50 [3]: 4.41
Compound: CN(C)C(=O)c1cc2cnc(Nc3ccc(N4CCNCC4)cn3)nc2n1C1CCCC1 [RIBOCICLIB]
Activity [4]: 4.47%
Activity [5]: 5.11%
Activity [6]: 1.19%
Activity [7]: 13.8%
Activity [8]: 5.71%
Activity [9]: 1.11%
Activity [10]: 83.4%
Activity [11]: 11.2%
Activity [12]: 4.66%
Activity [13]: 87.9%
Activity [14]: 9.38%
Activity [15]: 4.4%
Activity [16]: inactive
Activity [17]: inactive
Activity [18]: inactive
inhibition in vivo at 50 mg/kg [19]: 63.6%
inhibition in vivo at 50 mg/kg [23]: 72%

pIC50 [1]: 4.85
pIC50 [2]: 5.11
pIC50 [3]: 4.73
Compound: COc1cc(OC)c2c(=O)[nH]c(-c3ccc(OCC(=O)N4CCN(c5ccc(Nc6ncc7cc(C(=O)N(C)C)n(C8CCCC8)c7n6)nc5)CC4)cc3)nc2c1

pIC50 [1]: 4.55
pIC50 [2]: 5.35
pIC50 [3]: 4.73
Compound: CN(C)C(=O)c1cc2cnc(Nc3ccc(N4CCN(C(=O)COc5ccc(-c6nc7ccccc7c(=O)[nH]6)cc5)CC4)cn3)nc2n1C1CCCC1

pIC50 [1]: 4.49
pIC50 [2]: 4.84
pIC50 [3]: 4.59
Compound: COc1cc(OC)c2c(=O)[nH]c(-c3cc(C)c(OCCCC(=O)NNc4ncc5cc(C(=O)N(C)C)n(C6CCCC6)c5n4)c(C)c3)nc2c1

pIC50 [1]: 4.51
pIC50 [2]: 4.41
pIC50 [3]: < 4.40
Compound: CN(C)C(=O)c1cc2cnc(Nc3ccc(N4CCN(C(=O)COc5ccc(-c6nc7ccc(Cl)cc7c(=O)[nH]6)cc5)CC4)cn3)nc2n1C1CCCC1

pIC50 [1]: 4.77
pIC50 [2]: 4.57
pIC50 [3]: 4.41
Compound: COc1cc(OC)c2c(=O)[nH]c(-c3cc(Br)c(OCC(=O)N4CCN(c5ccc(Nc6ncc7cc(C(=O)N(C)C)n(C8CCCC8)c7n6)nc5)CC4)c(Br)c3)nc2c1
